Like-named read-outs stand apart in the source and are kept apart here.
Biological target: T1, Full-length glucokinase (beta cell isoform) (Homo sapiens, UniProt P35557)
T1 construct: Full-length glucokinase (beta cell isoform) was His-tagged at N-terminus; His tag (N); made in house
T1 sequence (P35557 1-465): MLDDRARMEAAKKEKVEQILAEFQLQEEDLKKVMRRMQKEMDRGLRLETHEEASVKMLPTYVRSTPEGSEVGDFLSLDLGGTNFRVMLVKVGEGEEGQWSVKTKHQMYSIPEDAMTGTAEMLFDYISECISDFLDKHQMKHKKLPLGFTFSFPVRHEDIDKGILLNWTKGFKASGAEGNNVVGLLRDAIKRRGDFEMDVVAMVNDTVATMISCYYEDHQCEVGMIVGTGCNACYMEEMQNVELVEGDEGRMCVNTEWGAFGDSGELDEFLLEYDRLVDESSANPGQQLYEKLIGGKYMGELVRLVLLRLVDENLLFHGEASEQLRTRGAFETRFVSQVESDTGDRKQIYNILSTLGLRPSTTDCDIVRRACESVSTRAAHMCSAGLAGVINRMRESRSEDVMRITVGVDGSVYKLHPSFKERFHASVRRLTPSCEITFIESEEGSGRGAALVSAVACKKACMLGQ
Experiment: Glucokinase biochemical assay (PK/LDH-coupled, NADH depletion at 340 nm): % activation, EC50, % max activation
Details: for activation at 10 µM: read-out: % Activation at 10 uM; for EC50: GK activation; for Emax: read-out: % Max Activation
Summary of the method: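 N-terminally His-tagged full-length human beta-cell glucokinase, room temperature, 5 mM glucose, 1 mM ATP, PK/LDH-coupled with 0.7 mM NADH, 1% DMSO final. Initial velocity from the 200–900 s slope of A340 decline. % activation = (Va/Vo−1)×100, measured across compound concentrations.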

[1] = 10 uM compound, 5 mM glucose, % Activation=(Va/Vo−1)×100
[2] = 5 mM glucose, fitted maximum activation

Question: How did the activation at 10 µM [1] turn out when `Cn1ccc(NC(=O)c2cc(OCc3ccccc3)c3c(c2)OC(C(F)F)C3)n1` (stereo not drawn) [Example 222, 4-Benzyloxy-2-difluoromethyl-2,3-dihydro-benzofuran-6-carboxylic acid (1-methyl-1H-pyrazol-3-yl)-amide] was run?
Answer: 61.1%

Question: What about the EC50 (5 mM glucose, read-out: EC50) of the same compound?
Answer: > 10 µM

Question: `Cn1ccc(NC(=O)c2cc(Oc3cc(F)c(C(=O)N4CCC4)c(F)c3)c3c(c2)OC(C(F)F)C3)n1` (stereo not drawn) [Example 223, 4-[4-(Azetidine-1-carbonyl)-3,5-difluoro-phenoxy]-2-difluoromethyl-2,3-dihydro-benzofuran-6-carboxylic acid (1-methyl-1H-pyrazol-3-yl)-amide] was tested. Which activation at 10 µM [1] did it give?
Answer: 112%

Question: What about the EC50 (5 mM glucose, read-out: EC50) of the same compound?
Answer: 0.68 µM

Question: And the Emax [2]?
Answer: 127%

Question: What does the source list for `Cn1ccc(NC(=O)c2cc(Oc3ccc(S(C)(=O)=O)cc3)c3c(c2)OC(CF)C3)n1` (stereo not drawn) [Example 224, 2-Fluoromethyl-4-(4-methanesulfonyl-phenoxy)-2,3-dihydro-benzofuran-6-carboxylic acid (1-methyl-1H-pyrazol-3-yl)-amide]?
Answer: activation at 10 µM [1]: 142%; EC50 (5 mM glucose, read-out: EC50): 2.3 µM; Emax [2]: 160%

Question: `Cn1ccc(NC(=O)c2cc(Oc3ccc(S(C)(=O)=O)cc3)c3c(c2)OC(C(F)F)C3)n1` (stereo not drawn) [Example 225, 2-Difluoromethyl-4-(4-methanesulfonyl-phenoxy)-2,3-dihydro-benzofuran-6-carboxylic acid (1-methyl-1H-pyrazol-3-yl)-amide] was tested. Which activation at 10 µM [1] did it give?
Answer: 103%

Question: And the EC50 (5 mM glucose, read-out: EC50)?
Answer: 2.93 µM

Question: What about the Emax [2] of the same compound?
Answer: 242%

Question: What does the source list for `Cn1ccc(NC(=O)c2cc(Oc3ccc(C(=O)N4CCC4)cc3)c3c(c2)OC(C(F)F)C3)n1` (stereo not drawn) [Example 226, 4-[4-(Azetidine-1-carbonyl)-phenoxy]-2-difluoromethyl-2,3-dihydro-benzofuran-6-carboxylic acid (1-methyl-1H-pyrazol-3-yl)-amide]?
Answer: activation at 10 µM [1]: 112%; EC50 (5 mM glucose, read-out: EC50): 0.64 µM; Emax [2]: 137%

Question: How did the activation at 10 µM [1] turn out when `Cn1ccc(NC(=O)c2cc(Oc3ccc(S(C)(=O)=O)cc3)c3c(c2)OC(C)(CO)C3)n1` (stereo not drawn) [Example 227, 2-Hydroxymethyl-4-(4-methanesulfonyl-phenoxy)-2-methyl-2,3-dihydro-benzofuran-6-carboxylic acid (1-methyl-1H-pyrazol-3-yl)-amide] was run?
Answer: 165%

Question: And the EC50 (5 mM glucose, read-out: EC50)?
Answer: 0.69 µM

Question: What about the Emax [2] of the same compound?
Answer: 184%

Question: How did the activation at 10 µM [1] turn out when `COCC1(C)Cc2c(Oc3ccc(S(C)(=O)=O)cc3)cc(C(=O)Nc3ccn(C)n3)cc2O1` (stereo not drawn) [Example 228, 4-(4-Methanesulfonyl-phenoxy)-2-methoxymethyl-2-methyl-2,3-dihydro-benzofuran-6-carboxylic acid (1-methyl-1H-pyrazol-3-yl)-amide] was run?
Answer: 151%

Question: And the EC50 (5 mM glucose, read-out: EC50)?
Answer: 0.5 µM

Question: And the Emax [2]?
Answer: 156%

Question: For `CN(C)C(=O)c1ccc(Oc2cc(C(=O)Nc3ccn(C)n3)cc3c2CC(C)(CO)O3)cc1F` (stereo not drawn) [Example 229, 4-(4-Dimethylcarbamoyl-3-fluoro-phenoxy)-2-hydroxymethyl-2-methyl-2,3-dihydro-benzofuran-6-carboxylic acid (1-methyl-1H-pyrazol-3-yl)-amide], which activation at 10 µM [1] is on record?
Answer: 101%

Question: What about the EC50 (5 mM glucose, read-out: EC50) of the same compound?
Answer: 0.12 µM

Question: What about the Emax [2] of the same compound?
Answer: 97%

Question: For `Cc1ccc(NC(=O)c2cc(Oc3ccc(S(C)(=O)=O)cc3)c3c(c2)OC(C)(CO)C3)nc1` (stereo not drawn) [Example 230, 2-Hydroxymethyl-4-(4-methanesulfonyl-phenoxy)-2-methyl-2,3-dihydro-benzofuran-6-carboxylic acid (5-methyl-pyridin-2-yl)-amide], which activation at 10 µM [1] is on record?
Answer: 91.8%

Question: What about the EC50 (5 mM glucose, read-out: EC50) of the same compound?
Answer: 0.33 µM

Question: What about the Emax [2] of the same compound?
Answer: 95%

Question: `COCC1(C)Cc2c(Oc3ccc(S(C)(=O)=O)cc3)cc(C(=O)Nc3ccc(C)cn3)cc2O1` (stereo not drawn) [Example 231, 4-(4-Methanesulfonyl-phenoxy)-2-methoxymethyl-2-methyl-2,3-dihydro-benzofuran-6-carboxylic acid (5-methyl-pyridin-2-yl)-amide] was tested. Which activation at 10 µM [1] did it give?
Answer: 118%

Question: What about the EC50 (5 mM glucose, read-out: EC50) of the same compound?
Answer: 0.1 µM

Question: And the Emax [2]?
Answer: 106%

Question: Which activation at 10 µM [1] does the source give for `Cn1ccc(NC(=O)c2cc(Oc3ccc(S(C)(=O)=O)c(F)c3)c3c(c2)OC(C)(CO)C3)n1` (stereo not drawn) [Example 232, 4-(3-Fluoro-4-methanesulfonyl-phenoxy)-2-hydroxymethyl-2-methyl-2,3-dihydro-benzofuran-6-carboxylic acid (1-methyl-1H-pyrazol-3-yl)-amide] here?
Answer: 188%

Question: And the EC50 (5 mM glucose, read-out: EC50)?
Answer: 0.39 µM

Question: And the Emax [2]?
Answer: 184%

Question: With `Cc1ccc(NC(=O)c2cc(Oc3ccc(S(C)(=O)=O)c(F)c3)c3c(c2)OC(C)(CO)C3)nc1` (stereo not drawn) [Example 233, 4-(3-Fluoro-4-methanesulfonyl-phenoxy)-2-hydroxymethyl-2-methyl-2,3-dihydro-benzofuran-6-carboxylic acid (5-methyl-pyridin-2-yl)-amide] as the compound, how does the activation at 10 µM [1] read?
Answer: 201%

Question: What about the EC50 (5 mM glucose, read-out: EC50) of the same compound?
Answer: 0.064 µM

Question: And the Emax [2]?
Answer: 165%

Question: What does the source list for `COCC1(C)Cc2c(Oc3ccc(C(=O)N(C)C)c(F)c3)cc(C(=O)Nc3ccn(C)n3)cc2O1` (stereo not drawn) [Example 234, 4-(4-Dimethylcarbamoyl-3-fluoro-phenoxy)-2-methoxymethyl-2-methyl-2,3-dihydro-benzofuran-6-carboxylic acid (1-methyl-1H-pyrazol-3-yl)-amide]?
Answer: activation at 10 µM [1]: 121%; EC50 (5 mM glucose, read-out: EC50): 0.075 µM; Emax [2]: 112%

Question: Which activation at 10 µM [1] does the source give for `Cn1ccc(NC(=O)c2cc(Oc3cc(F)ccc3S(C)(=O)=O)c3c(c2)OC(C)(CO)C3)n1` (stereo not drawn) [Example 235, 4-(5-Fluoro-2-methanesulfonyl-phenoxy)-2-hydroxymethyl-2-methyl-2,3-dihydro-benzofuran-6-carboxylic acid (1-methyl-1H-pyrazol-3-yl)-amide] here?
Answer: 69.2%

Question: And the EC50 (5 mM glucose, read-out: EC50)?
Answer: > 10 µM

Question: With `Cc1ccc(NC(=O)c2cc(Oc3cc(F)ccc3S(C)(=O)=O)c3c(c2)OC(C)(CO)C3)nc1` (stereo not drawn) [Example 236, 4-(5-Fluoro-2-methanesulfonyl-phenoxy)-2-hydroxymethyl-2-methyl-2,3-dihydro-benzofuran-6-carboxylic acid (5-methyl-pyridin-2-yl)-amide] as the compound, how does the activation at 10 µM [1] read?
Answer: 55.6%

Question: What about the EC50 (5 mM glucose, read-out: EC50) of the same compound?
Answer: 2.7 µM

Question: What about the Emax [2] of the same compound?
Answer: 66%

Question: `COCC1(C)Cc2c(Oc3ccc(S(C)(=O)=O)c(F)c3)cc(C(=O)Nc3ccn(C)n3)cc2O1` (stereo not drawn) [Example 237, 4-(3-Fluoro-4-methanesulfonyl-phenoxy)-2-methoxymethyl-2-methyl-2,3-dihydro-benzofuran-6-carboxylic acid (1-methyl-1H-pyrazol-3-yl)-amide] was tested. Which activation at 10 µM [1] did it give?
Answer: 189%

Question: And the EC50 (5 mM glucose, read-out: EC50)?
Answer: 0.098 µM

Question: And the Emax [2]?
Answer: 157%

Question: `COCC1(C)Cc2c(Oc3cc(F)ccc3S(C)(=O)=O)cc(C(=O)Nc3ccn(C)n3)cc2O1` (stereo not drawn) [Example 238, 4-(5-Fluoro-2-methanesulfonyl-phenoxy)-2-methoxymethyl-2-methyl-2,3-dihydro-benzofuran-6-carboxylic acid (1-methyl-1H-pyrazol-3-yl)-amide] was tested. Which activation at 10 µM [1] did it give?
Answer: 89.8%

Question: And the EC50 (5 mM glucose, read-out: EC50)?
Answer: > 10 µM

Question: With `Cc1ccc(NC(=O)c2cc(Oc3ccc(C(=O)N(C)C)c(F)c3)c3c(c2)OC(C)(CO)C3)nc1` (stereo not drawn) [Example 239, 4-(4-Dimethylcarbamoyl-3-fluoro-phenoxy)-2-hydroxymethyl-2-methyl-2,3-dihydro-benzofuran-6-carboxylic acid (5-methyl-pyridin-2-yl)-amide] as the compound, how does the activation at 10 µM [1] read?
Answer: 32.1%

Question: And the EC50 (5 mM glucose, read-out: EC50)?
Answer: 0.02 µM

Question: What about the Emax [2] of the same compound?
Answer: 42%

Question: What does the source list for `Cc1ccc(NC(=O)c2cc(Oc3ccc(C(=O)N4CCC4)c(F)c3)c3c(c2)OC(C)(CO)C3)nc1` (stereo not drawn) [Example 240, 4-[4-(Azetidine-1-carbonyl)-3-fluoro-phenoxy]-2-hydroxymethyl-2-methyl-2,3-dihydro-benzofuran-6-carboxylic acid (5-methyl-pyridin-2-yl)-amide]?
Answer: EC50 (EC50 (uM), 5 mM glucose): 0.021 µM; activation at 10 µM: 83%; Emax: 94%

Question: Which activation at 10 µM [1] does the source give for `Cn1ccc(NC(=O)c2cc(Oc3ccc(C(=O)N4CCC4)c(F)c3)c3c(c2)OC(C)(CO)C3)n1` (stereo not drawn) [Example 241, 4-[4-(Azetidine-1-carbonyl)-3-fluoro-phenoxy]-2-hydroxymethyl-2-methyl-2,3-dihydro-benzofuran-6-carboxylic acid (1-methyl-1H-pyrazol-3-yl)-amide] here?
Answer: 127%

Question: And the EC50 (5 mM glucose, read-out: EC50)?
Answer: 0.058 µM

Question: And the Emax [2]?
Answer: 135%

Question: Which activation at 10 µM [1] does the source give for `COCC1(C)Cc2c(Oc3ccc(C(=O)N4CCC4)c(F)c3)cc(C(=O)Nc3ccn(C)n3)cc2O1` (stereo not drawn) [Example 242, 4-[4-(Azetidine-1-carbonyl)-3-fluoro-phenoxy]-2-methoxymethyl-2-methyl-2,3-dihydro-benzofuran-6-carboxylic acid (1-methyl-1H-pyrazol-3-yl)-amide] here?
Answer: 140%

Question: What about the EC50 (5 mM glucose, read-out: EC50) of the same compound?
Answer: 0.063 µM

Question: What about the Emax [2] of the same compound?
Answer: 144%

Question: How did the activation at 10 µM [1] turn out when `Cn1ccc(NC(=O)c2cc(Oc3ccc(S(=O)(=O)C4CC4)cc3)c3c(c2)OC(C)(CO)C3)n1` (stereo not drawn) [Example 245, 4-(4-Cyclopropanesulfonyl-phenoxy)-2-hydroxymethyl-2-methyl-2,3-dihydro-benzofuran-6-carboxylic acid (1-methyl-1H-pyrazol-3-yl)-amide] was run?
Answer: 196%

Question: And the EC50 (5 mM glucose, read-out: EC50)?
Answer: 0.13 µM

Question: What about the Emax [2] of the same compound?
Answer: 236%

Question: How did the activation at 10 µM [1] turn out when `Cn1ncc(NC(=O)c2cc(Oc3ccc(S(=O)(=O)C4CC4)cc3)c3c(c2)OC(C)(CO)C3)n1` (stereo not drawn) [Example 246, 4-(4-Cyclopropanesulfonyl-phenoxy)-2-hydroxymethyl-2-methyl-2,3-dihydro-benzofuran-6-carboxylic acid (2-methyl-2H-[1,2,3]triazol-4-yl)-amide] was run?
Answer: 222%

Question: And the EC50 (5 mM glucose, read-out: EC50)?
Answer: 0.16 µM

Question: And the Emax [2]?
Answer: 261%
